Patent USRE48461E1, “Modulation of androgen receptor expression” (Ionis Pharmaceuticals, Inc., priority 2012, dated 2021)
Oligonucleotides are written 5' to 3', each unit as a sugar letter and its base; * is a phosphorothioate linkage, no mark a phosphodiester; rarer units and linkages stand in square brackets, end groups in braces. Plain capitals give the bases only. k = constrained ethyl (cEt); [5mC] = 5-methylcytosine; d = 2'-deoxy (DNA)

Legend:
AR mRNA [1] = assay: Dose-dependent antisense inhibition of human AR in HuVEC cells (electroporation, qRT-PCR RTS3559, IC50); format: cell-based; details: HuVEC
Summary of the method: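 HuVEC cells dosed with antisense oligonucleotides by electroporation and treated approximately 16 hours. AR mRNA quantified by real-time qPCR with primer probe set RTS3559 and normalised to total RNA by RIBOGREEN; IC50 from dose-response.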

AR mRNA [2] = assay: Antisense inhibition of human AR in HuVEC cells, single concentration (electroporation, qRT-PCR RTS3559); format: cell-based
Summary of the method: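 HuVEC cells electroporated with antisense oligonucleotides at a single concentration. AR mRNA quantified by qRT-PCR using human primer-probe set RTS3559 and normalised to total RNA content by RIBOGREEN.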

[3] = Table 31, electroporation, approximately 16 hours
[4] = Table 19, 500 nM oligonucleotide, electroporation, approximately 24 hours, relative to untreated control
[5] = Table 33, electroporation, approximately 16 hours
[6] = Table 36, electroporation, approximately 16 hours
[7] = Table 35, electroporation, approximately 16 hours
[8] = Table 24, 1,000 nM oligonucleotide, electroporation, approximately 24 hours, relative to untreated control
[9] = Table 32, electroporation, approximately 16 hours
[10] = Table 29, electroporation, approximately 16 hours
[11] = Table 30, electroporation, approximately 16 hours

Substance: 560098 (kT*kG*kA*dT*dT*dT*dA*dA*dT*dG*dG*dT*dT*kG*k[5mC]*kA; further chemistry not given here) [compound 560098]
- percent inhibition of AR (AR mRNA [1]; 31.25 nM, ~16 h, Table 6): 20%
- percent inhibition of AR (AR mRNA [1]; 31.25 nM, ~16 h, Table 8): 30%
- percent inhibition of AR (AR mRNA [1]; 62.5 nM, ~16 h, Table 6): 41%
- percent inhibition of AR (AR mRNA [1]; 62.5 nM, ~16 h, Table 8): 54%
- percent inhibition of AR (AR mRNA [1]; 125.0 nM, ~16 h, Table 6): 64%
- percent inhibition of AR (AR mRNA [1]; 125.0 nM, ~16 h, Table 8): 65%
- percent inhibition of AR (AR mRNA [1]; 500.0 nM, ~16 h, Table 6): 94%
- percent inhibition of AR (AR mRNA [1]; 500.0 nM, ~16 h, Table 8): 89%
- percent inhibition of AR (AR mRNA [1]; 1000.0 nM, ~16 h, Table 6): 94%
- percent inhibition of AR (AR mRNA [1]; 1000.0 nM, ~16 h, Table 8): 97%
- IC50 (AR mRNA [1]; ~16 h, Table 6): 100 nM
- IC50 (AR mRNA [1]; ~16 h, Table 8): 70 nM
- % inhibition (AR mRNA [2]; 250 nM ASO, ~24 h, Table 7): 69%
- % inhibition (AR mRNA [2]; 500 nM ASO, ~24 h, Table 5): 99%

Substance: 583799 (antisense kT*kG*k[5mC]*d[5mC]*dT*dT*d[5mC]*dG*dG*dA*dT*dA*d[5mC]*kT*kG*k[5mC]) [compound 583799]
- percent inhibition of AR, 46.9 nM (AR mRNA [1]; [3]): 29%
- percent inhibition of AR, 187.5 nM (AR mRNA [1]; [3]): 60%
- percent inhibition of AR, 750.0 nM (AR mRNA [1]; [3]): 76%
- percent inhibition of AR, 3000.0 nM (AR mRNA [1]; [3]): 85%
- IC50 (AR mRNA [1]; [3]): 140 nM
- % inhibition (AR mRNA [2]; [4]): 65%

Substance: 549338 (kG*kG*k[5mC]*dT*dG*dT*dG*dA*dT*dG*dA*dT*dG*k[5mC]*kG*kG; antisense) [compound 549338]
- percent inhibition of AR (AR mRNA [1]; 55.6 nM, ~16 h, Table 4): 32%
- percent inhibition of AR (AR mRNA [1]; 166.7 nM, ~16 h, Table 4): 47%
- percent inhibition of AR (AR mRNA [1]; 500.0 nM, ~16 h, Table 4): 67%
- percent inhibition of AR (AR mRNA [1]; 1500.0 nM, ~16 h, Table 4): 78%
- IC50 (AR mRNA [1]; ~16 h, Table 4): 154 nM
- % inhibition (AR mRNA [2]; 500 nM ASO, electroporation, ~24 h, Table 1): 83%

Substance: 583893 (kA*kG*k[5mC]*dA*dG*d[5mC]*d[5mC]*dT*dA*dG*dG*d[5mC]*dT*k[5mC]*kT*k[5mC]; antisense) [compound 583893]
- percent inhibition of AR, 46.9 nM (AR mRNA [1]; [5]): 15%
- percent inhibition of AR, 187.5 nM (AR mRNA [1]; [5]): 35%
- percent inhibition of AR, 750.0 nM (AR mRNA [1]; [5]): 62%
- percent inhibition of AR, 3000.0 nM (AR mRNA [1]; [5]): 79%
- IC50 (AR mRNA [1]; [5]): 420 nM
- % inhibition (AR mRNA [2]; Table 20, 500 nM oligonucleotide, electroporation, approximately 24 hours, relative to untreated control): 34%

Substance: 584242 (k[5mC]*k[5mC]*kA*dT*dT*dT*dG*dT*dG*d[5mC]*d[5mC]*dA*dA*kA*k[5mC]*k[5mC]; antisense) [compound 584242]
- percent inhibition of AR, 46.9 nM (AR mRNA [1]; [6]): 12%
- percent inhibition of AR, 187.5 nM (AR mRNA [1]; [6]): 38%
- percent inhibition of AR, 750.0 nM (AR mRNA [1]; [6]): 66%
- percent inhibition of AR, 3000.0 nM (AR mRNA [1]; [6]): 93%
- IC50 (AR mRNA [1]; [6]): 270 nM
- % inhibition (AR mRNA [2]; Table 25, 1,000 nM oligonucleotide, electroporation, approximately 24 hours, relative to untreated control): 62%

Substance: 584180 (kG*kT*kA*dG*dA*dT*dT*d[5mC]*dT*dA*dG*d[5mC]*dT*kT*kT*kG; antisense) [compound 584180]
- percent inhibition of AR, 46.9 nM (AR mRNA [1]; [7]): 26%
- percent inhibition of AR, 187.5 nM (AR mRNA [1]; [7]): 56%
- percent inhibition of AR, 750.0 nM (AR mRNA [1]; [7]): 84%
- percent inhibition of AR, 3000.0 nM (AR mRNA [1]; [7]): 96%
- IC50 (AR mRNA [1]; [7]): 120 nM
- % inhibition (AR mRNA [2]; [8]): 81%

Substance: 583802 (antisense k[5mC]*kT*k[5mC]*dG*d[5mC]*dT*d[5mC]*dT*d[5mC]*d[5mC]*d[5mC]*dG*d[5mC]*kT*kG*k[5mC]) [compound 583802]
- percent inhibition of AR, 46.9 nM (AR mRNA [1]; [9]): 17%
- percent inhibition of AR, 187.5 nM (AR mRNA [1]; [9]): 25%
- percent inhibition of AR, 750.0 nM (AR mRNA [1]; [9]): 47%
- percent inhibition of AR, 3000.0 nM (AR mRNA [1]; [9]): 60%
- IC50 (AR mRNA [1]; [9]): 1070 nM
- % inhibition (AR mRNA [2]; [4]): 37%

Substance: 560137 (antisense TTGATTTAATGGTTGC; all C 5-methyl, all phosphorothioate, sugars by position not given here; further chemistry not fully specified) [compound 560137]
- percent inhibition of AR (AR mRNA [1]; 31.25 nM, ~16 h, Table 6): 27%
- percent inhibition of AR (AR mRNA [1]; 31.25 nM, ~16 h, Table 8): 35%
- percent inhibition of AR (AR mRNA [1]; 62.5 nM, ~16 h, Table 6): 49%
- percent inhibition of AR (AR mRNA [1]; 62.5 nM, ~16 h, Table 8): 39%
- percent inhibition of AR (AR mRNA [1]; 125.0 nM, ~16 h, Table 6): 61%
- percent inhibition of AR (AR mRNA [1]; 125.0 nM, ~16 h, Table 8): 64%
- percent inhibition of AR (AR mRNA [1]; 500.0 nM, ~16 h, Table 6): 91%
- percent inhibition of AR (AR mRNA [1]; 500.0 nM, ~16 h, Table 8): 89%
- percent inhibition of AR (AR mRNA [1]; 1000.0 nM, ~16 h, Table 6): 96%
- percent inhibition of AR (AR mRNA [1]; 1000.0 nM, ~16 h, Table 8): 94%
- IC50 (AR mRNA [1]; ~16 h, Table 6): 100 nM
- IC50 (AR mRNA [1]; ~16 h, Table 8): 80 nM
- % inhibition (AR mRNA [2]; 250 nM ASO, ~24 h, Table 7): 66%
- % inhibition (AR mRNA [2]; 500 nM ASO, ~24 h, Table 5): 95%

Substance: 583818 (antisense kT*kG*kG*dT*d[5mC]*dG*dA*dA*dG*dT*dG*d[5mC]*d[5mC]*k[5mC]*k[5mC]*k[5mC]) [compound 583818]
- percent inhibition of AR, 46.9 nM (AR mRNA [1]; [3]): 9%
- percent inhibition of AR, 187.5 nM (AR mRNA [1]; [3]): 46%
- percent inhibition of AR, 750.0 nM (AR mRNA [1]; [3]): 71%
- percent inhibition of AR, 3000.0 nM (AR mRNA [1]; [3]): 84%
- IC50 (AR mRNA [1]; [3]): 310 nM
- % inhibition (AR mRNA [2]; [4]): 42%

Substance: 583556 (antisense kA*kA*k[5mC]*dT*dT*d[5mC]*dA*d[5mC]*d[5mC]*dG*dA*dA*dG*kA*kG*kG) [compound 583556]
- percent inhibition of AR, 46.9 nM (AR mRNA [1]; [10]): 19%
- percent inhibition of AR, 187.5 nM (AR mRNA [1]; [10]): 47%
- percent inhibition of AR, 750.0 nM (AR mRNA [1]; [10]): 68%
- percent inhibition of AR, 3000.0 nM (AR mRNA [1]; [10]): 66%
- IC50 (AR mRNA [1]; [10]): 340 nM
- % inhibition (AR mRNA [2]; 500 nM ASO, ~24 h, Table 16): 43%

Substance: 584179 (kA*kT*kG*dA*dG*dT*d[5mC]*d[5mC]*dT*d[5mC]*dA*dG*dA*kA*kT*k[5mC]; antisense) [compound 584179]
- percent inhibition of AR, 46.9 nM (AR mRNA [1]; [7]): 1%
- percent inhibition of AR, 187.5 nM (AR mRNA [1]; [7]): 25%
- percent inhibition of AR, 750.0 nM (AR mRNA [1]; [7]): 62%
- percent inhibition of AR, 3000.0 nM (AR mRNA [1]; [7]): 87%
- IC50 (AR mRNA [1]; [7]): 440 nM
- % inhibition (AR mRNA [2]; [8]): 74%

Substance: 583734 (antisense kT*k[5mC]*kA*d[5mC]*dT*dT*d[5mC]*dG*d[5mC]*dG*d[5mC]*dA*d[5mC]*kG*k[5mC]*kT) [compound 583734]
- percent inhibition of AR, 46.9 nM (AR mRNA [1]; [11]): 29%
- percent inhibition of AR, 187.5 nM (AR mRNA [1]; [11]): 60%
- percent inhibition of AR, 750.0 nM (AR mRNA [1]; [11]): 74%
- percent inhibition of AR, 3000.0 nM (AR mRNA [1]; [11]): 75%
- IC50 (AR mRNA [1]; [11]): 120 nM
- % inhibition (AR mRNA [2]; 500 nM ASO, ~24 h, Table 18): 46%

Substance: 583584 (antisense k[5mC]*k[5mC]*kG*dA*d[5mC]*dT*dG*dA*dG*dG*d[5mC]*dA*dG*k[5mC]*kT*kG) [compound 583584]
- percent inhibition of AR, 46.9 nM (AR mRNA [1]; [10]): 24%
- percent inhibition of AR, 187.5 nM (AR mRNA [1]; [10]): 44%
- percent inhibition of AR, 750.0 nM (AR mRNA [1]; [10]): 52%
- percent inhibition of AR, 3000.0 nM (AR mRNA [1]; [10]): 73%
- IC50 (AR mRNA [1]; [10]): 410 nM
- % inhibition (AR mRNA [2]; 500 nM ASO, ~24 h, Table 16): 44%
